This is an account of results in ChEMBL document CHEMBL4725389, “Novel Blocker of Onco SK3 Channels Derived from Scorpion Toxin Tamapin and Active against Migration of Cancer Cells” (ACS Med Chem Lett, 2020).

Test [1] concerns the target Small conductance calcium-activated potassium channel protein 2 (Rattus norvegicus) (UniProt P70604). The test is described as follows: Inhibition of recombinant rat SK2 expressed in HEK293 cells at 10 nM and holding potential at 0 mV and ramp voltage from -100 to 100 mV by whole cell patch clamp method relative to control. The format is cell-based. For orientation: The patch-clamp technique gives a direct electrical read-out from membranes.

Test [2] concerns the target T1, Small conductance calcium-activated potassium channel protein 3 (Homo sapiens, UniProt Q9UGI6). The test is described as follows: Inhibition of recombinant human SK3 expressed in HEK293T cells at 10 nM and holding potential at 0 mV and ramp voltage from -100 to 100 mV by whole cell patch clamp method relative to control. The format is cell-based. The note with it: HEK-293T.

In test [3] the target is T1, Small conductance calcium-activated potassium channel protein 3. Kind of test: Inhibition of recombinant human SK3 expressed in HEK293T cells assessed as […] at membrane potential -120 mV for 50 ms followed by 400 ms voltage ramp to 60 mV by whole cell patch clamp method. The format is cell-based, HEK-293T. (Calcium flux is commonly read through the fluorescence of an indicator in the cells.)

Test [4] concerns the target Small conductance calcium-activated potassium channel protein 2 (Rattus norvegicus, UniProt P70604). The test is described as follows: Inhibition of recombinant rat SK2 expressed in HEK293 cells assessed as […] at membrane potential -120 mV for 50 ms followed by 400 ms voltage ramp to 60 mV by whole cell patch clamp method. The format is cell-based.

Positions of bridges follow the written chain, without caps; N, C: chain ends. Residues, ends and D or L forms follow the SMILES beside them.

T1 sequence (Q9UGI6 whole entry): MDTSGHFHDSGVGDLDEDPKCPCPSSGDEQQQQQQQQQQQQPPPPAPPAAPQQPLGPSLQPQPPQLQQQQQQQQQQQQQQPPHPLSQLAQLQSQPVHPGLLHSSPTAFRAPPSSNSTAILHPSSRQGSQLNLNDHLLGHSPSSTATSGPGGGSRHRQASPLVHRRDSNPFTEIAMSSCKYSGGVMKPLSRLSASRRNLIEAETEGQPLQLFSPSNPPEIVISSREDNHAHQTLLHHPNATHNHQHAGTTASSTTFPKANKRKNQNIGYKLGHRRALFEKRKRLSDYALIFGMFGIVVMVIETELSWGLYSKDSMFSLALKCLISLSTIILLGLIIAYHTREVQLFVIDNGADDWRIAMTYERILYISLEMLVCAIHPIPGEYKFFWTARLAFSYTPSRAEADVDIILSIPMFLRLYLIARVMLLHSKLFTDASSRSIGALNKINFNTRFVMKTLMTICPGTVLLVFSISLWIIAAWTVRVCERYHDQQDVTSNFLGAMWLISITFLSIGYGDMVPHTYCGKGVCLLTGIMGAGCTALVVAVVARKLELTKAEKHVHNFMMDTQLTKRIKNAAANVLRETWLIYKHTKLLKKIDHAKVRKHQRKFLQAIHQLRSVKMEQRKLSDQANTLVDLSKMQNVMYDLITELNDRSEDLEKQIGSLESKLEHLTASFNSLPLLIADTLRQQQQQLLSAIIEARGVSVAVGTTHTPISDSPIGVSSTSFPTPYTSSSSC
Sequence of Small conductance calcium-activated potassium channel protein 2 (Rattus norvegicus) (P70604 whole entry): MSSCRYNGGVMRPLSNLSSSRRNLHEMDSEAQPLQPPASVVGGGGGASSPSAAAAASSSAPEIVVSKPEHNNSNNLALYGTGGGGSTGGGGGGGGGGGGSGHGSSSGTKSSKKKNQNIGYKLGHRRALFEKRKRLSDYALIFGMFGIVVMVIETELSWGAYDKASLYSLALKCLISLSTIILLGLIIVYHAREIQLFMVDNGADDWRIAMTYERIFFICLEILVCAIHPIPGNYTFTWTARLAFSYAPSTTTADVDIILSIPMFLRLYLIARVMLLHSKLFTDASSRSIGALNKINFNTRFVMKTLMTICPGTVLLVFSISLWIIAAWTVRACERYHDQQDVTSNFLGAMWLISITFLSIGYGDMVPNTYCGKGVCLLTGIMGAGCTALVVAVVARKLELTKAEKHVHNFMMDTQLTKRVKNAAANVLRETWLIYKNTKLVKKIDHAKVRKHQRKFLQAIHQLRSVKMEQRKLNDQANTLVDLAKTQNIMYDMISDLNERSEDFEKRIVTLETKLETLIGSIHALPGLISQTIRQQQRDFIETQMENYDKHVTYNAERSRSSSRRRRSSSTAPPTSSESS
Sequence of Small conductance calcium-activated potassium channel protein 2 (P70604 whole entry): as above

As to `CC[C@H](C)[C@@H]1NC(=O)[C@@H]2CSSC[C@H](NC(=O)[C@H](Cc3ccccc3)NC(=O)[C@H](C)N)C(=O)N[C@@H](CC(N)=O)C(=O)N[C@@H](CC(C)C)C(=O)N[C@@H](CCCNC(=N)N)C(=O)N[C@@H](CCCNC(=N)N)C(=O)N[C@H]3CSSC[C@H](NC(=O)[C@H](CCC(=O)O)NC(=O)[C@H](CCC(=O)O)NC(=O)CNC1=O)C(=O)N[C@@H](C)C(=O)N[C@H](C(=O)N[C@H](C(=O)N1CCC[C@H]1C(=O)N[C@@H](Cc1ccc(O)cc1)C(=O)O)C(C)C)CSSC[C@H](NC(=O)[C@H](CO)NC(=O)[C@H](CC(C)C)NC(=O)[C@H](CCC(=O)O)NC3=O)C(=O)N[C@@H](CCCNC(=N)N)C(=O)N[C@@H](CO)C(=O)N[C@@H](CC(C)C)C(=O)NCC(=O)N[C@@H](CC(C)C)C(=O)N[C@@H](CC(C)C)C(=O)NCC(=O)N[C@@H](CCCCN)C(=O)N2` (H-AFCNLRRCELSCRSLGLLGKCIGEECACVPY-OH; disulfide 3-21, 8-26, 12-28), the inhibition is < 39% in test [1] and 40% in test [2].
For `CC[C@H](C)[C@@H]1NC(=O)[C@@H]2CSSC[C@H](NC(=O)[C@H](Cc3ccccc3)NC(=O)[C@H](C)N)C(=O)N[C@@H](CC(N)=O)C(=O)N[C@@H](CC(C)C)C(=O)N[C@@H](CCCNC(=N)N)C(=O)N[C@@H](CCCNC(=N)N)C(=O)N[C@H]3CSSC[C@H](NC(=O)[C@H](CCC(=O)O)NC(=O)[C@H](CCC(=O)O)NC(=O)CNC1=O)C(=O)N[C@@H](CCCCN)C(=O)N[C@H](C(=O)N[C@H](C(=O)N[C@@H](Cc1ccc(O)cc1)C(=O)O)C(C)C)CSSC[C@H](NC(=O)[C@H](CO)NC(=O)[C@H](CC(C)C)NC(=O)[C@H](CCC(=O)O)NC3=O)C(=O)N[C@@H](CCCNC(=N)N)C(=O)N[C@@H](CO)C(=O)N[C@@H](CC(C)C)C(=O)NCC(=O)N[C@@H](CC(C)C)C(=O)N[C@@H](CC(C)C)C(=O)NCC(=O)N[C@@H](CCCCN)C(=O)N2` (H-AFCNLRRCELSCRSLGLLGKCIGEECKCVY-OH; disulfide 3-21, 8-26, 12-28) the same measures were 40% and < 39%.
Regarding `CC[C@H](C)[C@@H]1NC(=O)[C@@H]2CSSC[C@H](NC(=O)[C@@H](NC(=O)[C@H](C)N)C(C)C)C(=O)N[C@@H](CC(N)=O)C(=O)N[C@@H](CC(C)C)C(=O)N[C@@H](CCCCN)C(=O)N[C@@H](CCCNC(=N)N)C(=O)N[C@H]3CSSC[C@H](NC(=O)[C@H](CCCCN)NC(=O)[C@H](CC(=O)O)NC(=O)CNC1=O)C(=O)N[C@@H](CCC(=O)O)C(=O)N[C@H](C(=O)N[C@H](C(=O)N[C@@H](CCCCN)C(=O)N[C@@H](Cc1c[nH]cn1)C(N)=O)C(C)C)CSSC[C@H](NC(=O)[C@H](CO)NC(=O)[C@H](CC(C)C)NC(=O)[C@H](CCC(N)=O)NC3=O)C(=O)N[C@@H](CCCNC(=N)N)C(=O)N[C@@H](CO)C(=O)N[C@@H](CC(C)C)C(=O)NCC(=O)N[C@@H](CC(C)C)C(=O)N[C@@H](CC(C)C)C(=O)NCC(=O)N[C@@H](CCCCN)C(=O)N2` (H-AVCNLKRCQLSCRSLGLLGKCIGDKCECVKH-NH2; disulfide 3-21, 8-26, 12-28), in test [3], the EC50 was determined as 3.8 nM.
Consider `CC[C@H](C)[C@@H]1NC(=O)[C@@H]2CSSC[C@H](NC(=O)[C@H](Cc3ccccc3)NC(=O)[C@H](C)N)C(=O)N[C@@H](CC(N)=O)C(=O)N[C@@H](CC(C)C)C(=O)N[C@@H](CCCNC(=N)N)C(=O)N[C@@H](CCCNC(=N)N)C(=O)N[C@H]3CSSC[C@H](NC(=O)[C@H](CCC(=O)O)NC(=O)[C@H](CCC(=O)O)NC(=O)CNC1=O)C(=O)N[C@@H](CCCCN)C(=O)N[C@H](C(=O)N[C@H](C(=O)N[C@@H](Cc1ccc(O)cc1)C(=O)N[C@@H](CC(N)=O)C(=O)O)C(C)C)CSSC[C@H](NC(=O)[C@H](CO)NC(=O)[C@H](CC(C)C)NC(=O)[C@H](CCC(=O)O)NC3=O)C(=O)N[C@@H](CCCNC(=N)N)C(=O)N[C@@H](CO)C(=O)N[C@@H](CC(C)C)C(=O)NCC(=O)N[C@@H](CC(C)C)C(=O)N[C@@H](CC(C)C)C(=O)NCC(=O)N[C@@H](CCCCN)C(=O)N2` (H-AFCNLRRCELSCRSLGLLGKCIGEECKCVYN-OH; disulfide 3-21, 8-26, 12-28), for which the inhibition is 40% in test [1] and < 39% in test [2].
In the case of `CC[C@H](C)[C@@H]1NC(=O)[C@@H]2CSSC[C@H](NC(=O)[C@H](Cc3ccccc3)NC(=O)[C@H](C)N)C(=O)N[C@@H](CC(N)=O)C(=O)N[C@@H](CC(C)C)C(=O)N[C@@H](CCCNC(=N)N)C(=O)N[C@@H](CCCNC(=N)N)C(=O)N[C@H]3CSSC[C@H](NC(=O)[C@H](CCC(=O)O)NC(=O)[C@H](CCC(=O)O)NC(=O)CNC1=O)C(=O)N[C@@H](CCCCN)C(=O)N[C@H](C(=O)N[C@H](C(=O)N1CCC[C@H]1C(=O)N[C@@H](Cc1ccc(O)cc1)C(N)=O)C(C)C)CSSC[C@H](NC(=O)[C@H](CO)NC(=O)[C@H](CC(C)C)NC(=O)[C@H](CCC(=O)O)NC3=O)C(=O)N[C@@H](CCCNC(=N)N)C(=O)N[C@@H](CO)C(=O)N[C@@H](CC(C)C)C(=O)NCC(=O)N[C@@H](CC(C)C)C(=O)N[C@@H](CC(C)C)C(=O)NCC(=O)N[C@@H](CCCCN)C(=O)N2` (H-AFCNLRRCELSCRSLGLLGKCIGEECKCVPY-NH2; disulfide 3-21, 8-26, 12-28), the EC50 in test [3] stood at 1.7 nM; in test [4] it was 0.024 nM.
For `CC[C@H](C)[C@@H]1NC(=O)[C@@H]2CSSC[C@H](NC(=O)[C@H](Cc3ccccc3)NC(=O)[C@H](C)N)C(=O)N[C@@H](CC(N)=O)C(=O)N[C@@H](CC(C)C)C(=O)N[C@@H](CCCNC(=N)N)C(=O)N[C@@H](CCSC)C(=O)N[C@H]3CSSC[C@H](NC(=O)[C@H](CCCCN)NC(=O)[C@H](CC(=O)O)NC(=O)CNC1=O)C(=O)N[C@@H](CCC(=O)O)C(=O)N[C@H](C(=O)N[C@H](C(=O)N[C@@H](CCCCN)C(=O)N[C@@H](Cc1c[nH]cn1)C(=O)O)C(C)C)CSSC[C@H](NC(=O)[C@H](CO)NC(=O)[C@H](CC(C)C)NC(=O)[C@H](CCC(N)=O)NC3=O)C(=O)N[C@@H](CCCNC(=N)N)C(=O)N[C@@H](CO)C(=O)N[C@@H](CC(C)C)C(=O)NCC(=O)N[C@@H](CC(C)C)C(=O)N[C@@H](CC(C)C)C(=O)NCC(=O)N[C@@H](CCCCN)C(=O)N2` (H-AFCNLRMCQLSCRSLGLLGKCIGDKCECVKH-OH; disulfide 3-21, 8-26, 12-28) the same measures were 1.1 nM and 0.29 nM.
With `CC[C@H](C)[C@@H]1NC(=O)[C@@H]2CSSC[C@H](NC(=O)[C@H](Cc3ccccc3)NC(=O)[C@H](C)N)C(=O)N[C@@H](CC(N)=O)C(=O)N[C@@H](CC(C)C)C(=O)N[C@@H](CCCNC(=N)N)C(=O)N[C@@H](CCCNC(=N)N)C(=O)N[C@H]3CSSC[C@H](NC(=O)[C@H](CCC(=O)O)NC(=O)[C@H](CCC(=O)O)NC(=O)CNC1=O)C(=O)N[C@@H](CCCCN)C(=O)N[C@H](C(=O)N[C@H](C(=O)N1CCC[C@H]1C(=O)N[C@@H](Cc1ccc(O)cc1)C(=O)O)C(C)C)CSSC[C@H](NC(=O)[C@H](CO)NC(=O)[C@H](CC(C)C)NC(=O)[C@H](CCC(=O)O)NC3=O)C(=O)N[C@@H](CCCNC(=N)N)C(=O)N[C@@H](CO)C(=O)N[C@@H](CC(C)C)C(=O)NCC(=O)N[C@@H](CC(C)C)C(=O)N[C@@H](CC(C)C)C(=O)NCC(=O)N[C@@H](CCC(=O)O)C(=O)N2` (H-AFCNLRRCELSCRSLGLLGECIGEECKCVPY-OH; disulfide 3-21, 8-26, 12-28), the inhibition in test [1] is > 85%; in test [2], < 39%.

As a reminder, the inhibition is the change of the read-out against control, counted positive when it falls. One may read the EC50 as the concentration needed to bring the measured effect to its halfway point.
